Measurements taken from patent publication US12084445B2, “Broad-spectrum carbapenems” (VenatoRx Pharmaceuticals, Inc., priority 2018, dated 2024).
Read-outs that look alike come from different tables or passages of the source.

Columns and labels:
Assay type in all cases: cell-based
[1] = system: clinical isolate P. aeruginosa PA 8; assay: broth microdilution MIC assay, P. aeruginosa PA 8; conditions: Pseudomonas aeruginosa; Table 3; P. aeruginosa PA8
Description: (§1) To determine the ability of test compounds to potentiate the inhibition of the growth of bacterial strains, classic cell-based broth microdilution MIC assays were employed. MIC assays are performed according to CLSI methods except where otherwise noted (CLSI, 2011 and CLSI, 2009). The reference strains S. aureus ATCC 29213 (methicillin sensitive), S. aureus ATCC 33591 (methicillin-resistant), E. coli ATCC 25922 (wild-type/QC strain), P. aeruginosa ATCC 27853 (wild-type/QC strain), and the clinical isolate P. aeruginosa PA 8 were used to determine the ability of the exemplary carbapenem compounds to inhibit bacterial growth. An expanded panel of methicillin resistance S. aureus (MRSA) and Pseudomonas was also used to determine the ability of exemplary carbapenem compounds to inhibit bacterial growth across a broader representation of those species. To determine activity in MRSA and in addition to S. aureus ATCC 33591, S. aureus USA 300, USA 400 and USA 600, some of the most common clones found to cause human infection, were also used. To further gauge the impact on the carbapenem compounds due to various resistance mechanisms in Pseudomonas, the following strains were included: P. aeruginosa 35151 (hyper-permeable strain), P. aeruginosa AmexAB-OprM (an efflux pump knockout), and P. aeruginosa PA 3 (a clinical isolate of reduced carbapenem susceptibility). Briefly, cryo-preserved bacterial cultures of clinical strains are streaked for isolation on appropriate agar medium, in this case Mueller Hinton II agar. Following incubation to allow formation of colonies, these plates are sealed with parafilm and stored refrigerated for up to two weeks. For preparation of assay inocula and to ensure low variability, at least 5 colonies are picked from the agar plates with an inoculating loop and aseptically transferred to a culture tube containing 3 mL of Mueller-Hinton Broth (supplemented with divalent cations to required levels based on Manufacturers' specification). The broth culture is grown for 3-5 hours at 37° C. with shaking at 200 rpm. Meanwhile, 2-fold serial dilutions of test compounds are conducted in a 96 well plate with a final volume of 75 μL per well at 2-fold the final desired concentration. After the dilution plates are set up the growing cultures are then diluted in a cuvette containing MH II broth and the optical density is measured at 600 nm. Inocula are diluted such that 75 μL of this culture in Mueller-Hinton Broth results in a starting bacterial concentration of 5×10^5 CFU/mL when added to the dilution plates. The plates are incubated 16-20 hours at 37° C. The MIC is read visually as the lowest concentration well with no bacterial growth.
(§2) Representative results are shown in Tables 3, 4, and 5 where A represents an MIC>32 μg/mL, B represents an MIC between 8 and 32 μg/mL inclusive, C represents an MIC between 1 and 4 μg/mL inclusive, and D represents an MIC of <1 μg/mL. NT=Not Tested.

[2] = system: P. aeruginosa ATCC 27853 (wild-type/QC strain); assay: broth microdilution MIC assay, P. aeruginosa ATCC 27853; conditions: Pseudomonas aeruginosa
Description: as §1, §2

[3] = system: S. aureus ATCC 33591 (methicillin-resistant); assay: broth microdilution MIC assay, S. aureus ATCC 33591; conditions: Staphylococcus aureus
Description: as §1, §2

[4] = system: E. coli ATCC 25922 (wild-type/QC strain); assay: broth microdilution MIC assay, E. coli ATCC 25922; conditions: Escherichia coli
Description: as §1, §2

S. aureus USA 300 = assay: broth microdilution MIC assay, S. aureus USA 300; conditions: Staphylococcus aureus
Description: as §1, §2

S. aureus USA600 = assay: broth microdilution MIC assay, S. aureus USA 600; conditions: Staphylococcus aureus
Description: as §1, §2

[5] = system: P. aeruginosa ΔmexAB-OprM (an efflux pump knockout); assay: broth microdilution MIC assay, P. aeruginosa ΔmexAB-OprM; conditions: Pseudomonas aeruginosa, 20 h, read-out: P. aeruginosa ΔmexAB-OprM MIC
Description: as §1, §2

[6] = system: P. aeruginosa 35151 (hyper-permeable strain); assay: broth microdilution MIC assay, P. aeruginosa 35151; conditions: Pseudomonas aeruginosa, read-out: P. aeruginosa 35151 MIC
Description: as §1, §2

[7] = Table 4, S. aureus USA300, read-out: S. aureus USA300 MIC
[8] = ATCC27853, Table 5, P. aeruginosa 27853, read-out: P. aeruginosa 27853 MIC
[9] = ATCC33591, Table 4, S. aureus 33591, read-out: S. aureus 33591 MIC
[10] = Table 4, S. aureus USA600, read-out: S. aureus USA600 MIC
[11] = ATCC25922, Table 4, E. coli 25922, read-out: E. coli 25922 MIC

MIC [1] [µg/mL] | MIC ([2]; ATCC27853, Table 3, P. aeruginosa 27853, read-out: P. aeruginosa 27853 MIC) [µg/mL] | MIC ([3]; ATCC 33591 / MRSA, Table 3, S. aureus 33591 (MRSA), read-out: S. aureus 33591 (MRSA) MIC) [µg/mL] | MIC ([4]; ATCC25922, Table 3, E. coli 25922, read-out: E. coli 25922 MIC) [µg/mL] | SMILES | MIC (S. aureus USA 300; [7]) [µg/mL] | MIC [2, 8] [µg/mL] | MIC [3, 9] [µg/mL] | MIC (S. aureus USA600; [10]) [µg/mL] | MIC [4, 11] [µg/mL] | MIC [5] [µg/mL] | MIC [6] [µg/mL] | MIC (S. aureus USA 300; USA300, read-out: S. aureus USA300 MIC) [µg/mL] | MIC ([2]; ATCC27853, read-out: P. aeruginosa 27853 MIC) [µg/mL] | MIC ([3]; ATCC33591, read-out: S. aureus 33591 MIC) [µg/mL] | MIC (S. aureus USA600; USA600, read-out: S. aureus USA600 MIC) [µg/mL] | MIC ([4]; ATCC25922, read-out: E. coli 25922 MIC) [µg/mL]
8 to 32 | 8 to 32 | 1 to 4 | < 1 | C[C@@H](O)[C@H]1C(=O)N2C(C(=O)O)=C(S[C@@H]3CCN(Cc4ccc(C(N)CN)cc4)C3)[C@H](C)[C@H]12 (stereo partly drawn) [Example 34, (4R,5S,6S)-3-(((3R)-1-(4-(1,2-diaminoethyl)benzyl)pyrrolidin-3-yl)thio)-6-((R)-1-hydroxyethyl)-4-methyl-7-oxo-1-azabicyclo[3.2.0]hept-2-ene-2-carboxylic acid] | – | – | – | – | – | – | – | – | – | – | – | –
– | – | – | – | C[C@@H](O)[C@H]1C(=O)N2C(C(=O)O)=C(S[C@@H]3CCN(CC4CCN(C)CC4)C3)[C@H](C)[C@H]12 [Example 39, (4R,5S,6S)-6-((R)-1-hydroxyethyl)-4-methyl-3-(((R)-1-((1-methylpiperidin-4-yl)methyl)pyrrolidin-3-yl)thio)-7-oxo-1-azabicyclo[3.2.0]hept-2-ene-2-carboxylic acid] | 1 to 4 | 1 to 4 | 1 to 4 | 1 to 4 | < 1 | 1 to 4 | < 1 | – | – | – | – | –
– | – | – | – | C[C@@H](O)[C@H]1C(=O)N2C(C(=O)O)=C(S[C@@H]3CCN(CC4CCN(CCO)CC4)C3)[C@H](C)[C@H]12 [Example 40, (4R,5S,6S)-6-((R)-1-hydroxyethyl)-3-(((R)-1-((1-(2-hydroxyethyl)piperidin-4-yl)methyl)pyrrolidin-3-yl)thio)-4-methyl-7-oxo-1-azabicyclo[3.2.0]hept-2-ene-2-carboxylic acid] | 1 to 4 | 1 to 4 | 8 to 32 | 1 to 4 | < 1 | 1 to 4 | < 1 | – | – | – | – | –
– | – | – | – | C[C@@H](O)[C@H]1C(=O)N2C(C(=O)O)=C(S[C@@H]3CCN(CC4CCN(CC(N)=O)CC4)C3)[C@H](C)[C@H]12 [Example 41, (4R,5S,6S)-3-(((R)-1-((1-(2-amino-2-oxoethyl)piperidin-4-yl)methyl)pyrrolidin-3-yl)thio)-6-((R)-1-hydroxyethyl)-4-methyl-7-oxo-1-azabicyclo[3.2.0]hept-2-ene-2-carboxylic acid] | 1 to 4 | 8 to 32 | 8 to 32 | 1 to 4 | < 1 | 1 to 4 | < 1 | – | – | – | – | –
– | – | – | – | C[C@@H](O)[C@H]1C(=O)N2C(C(=O)O)=C(S[C@@H]3CCN(CC4CCNCC4F)C3)[C@H](C)[C@H]12 (stereo partly drawn) [Example 45, (4R,5S,6S)-3-(((3R)-1-((3-fluoropiperidin-4-yl)methyl)pyrrolidin-3-yl)thio)-6-((R)-1-hydroxyethyl)-4-methyl-7-oxo-1-azabicyclo[3.2.0]hept-2-ene-2-carboxylic acid] | – | – | – | – | – | 1 to 4 | < 1 | 1 to 4 | 1 to 4 | 1 to 4 | 1 to 4 | < 1
– | – | – | – | C[C@@H](O)[C@H]1C(=O)N2C(C(=O)O)=C(S[C@@H]3CCN(CC4CCNCC4(F)F)C3)[C@H](C)[C@H]12 (stereo partly drawn) [Example 46, (4R,5S,6S)-3-(((3R)-1-((3,3-difluoropiperidin-4-yl)methyl)pyrrolidin-3-yl)thio)-6-((R)-1-hydroxyethyl)-4-methyl-7-oxo-1-azabicyclo[3.2.0]hept-2-ene-2-carboxylic acid] | 1 to 4 | 8 to 32 | 8 to 32 | 1 to 4 | < 1 | 1 to 4 | < 1 | – | – | – | – | –
